For assay [1], the target named is recombinant human Mcl-1 (residues 171-327) / Bim interaction (Homo sapiens (Human), UniProt Q07820). Put plainly: biochemical. It counts as binding. Particulars: read-out: Mcl-1 HTRF IC50. On the technique in general: In TR-FRET formats the signal depends on donor and acceptor labels being close together.
In assay [2] the test system is human multiple myeloma cell line, OPM-2. Description: Cell viability assay (OPM-2 10 FBS), CellTiter-Glo. The format is cell-based. The gist of the method: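 Steps: plate cells at 3000/well in 10% FBS growth medium, add serially diluted compound, incubate 16 h at 37 °C with 5% CO2, add detection reagent and read luminescence after 25 min. A 4-parameter logistic model gives IC50.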
A general note: Cellular ATP, detected with luciferase, serves as a proxy for viable cell number.

Where [3] appears, read: TR-FRET, Mcl-1(171-327) / biotin-Bim (51-76).
The mark [4] stands for this setting: Homo sapiens, OPM-2, 16 h, read-out: OPM-2 10% FBS IC50 IP, OPM-2 cells, 10% FBS, 16 h, CellTiter-Glo.
Where [5] appears, read: 0.1 nM Mcl-1(171-327), 0.05 nM biotin-Bim (51-76).
[6] abbreviates: Homo sapiens, OPM-2, 16 h, read-out: OPM-2 10% FBS IC50 IP, OPM-2 cells, 10% FBS, 16 h incubation.
The mark [7] stands for this setting: read-out: OPM-2 10% FBS IC50 IP, OPM-2 cells, 10% FBS, 16 h, CellTiter-Glo.

Where two headings read alike, the source gives them in different places.

Chain of recombinant human Mcl-1 (residues 171-327) / Bim interaction (Q07820 171-327): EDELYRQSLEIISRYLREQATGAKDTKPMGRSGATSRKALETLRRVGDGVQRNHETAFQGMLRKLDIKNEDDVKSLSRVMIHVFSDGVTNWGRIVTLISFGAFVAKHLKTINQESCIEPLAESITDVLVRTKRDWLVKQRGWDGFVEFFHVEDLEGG

Regarding `C[C@@H]1[C@@H](C)C/C=C/[C@](C)(OCC2CCOCC2)[C@@H]2CC[C@H]2CN2C[C@@]3(CCCc4cc(Cl)ccc43)COc3ccc(cc32)C(=O)NS1(=O)=O` [Example 100477, (1S,3′R,6′R,7′S,8′E,11′S,12′R)-6-chloro-7′,11′,12′-trimethyl-7′-(tetrahydro-2H-pyran-4-ylmethoxy)-3,4-dihydro-2H,15′H-spiro[naphthalene-1,22′-[20]oxa[13]thia[1,14]diazatetracyclo [14.7.2.0~3,6~.0~19,24~]pentacosa[8,16,18,24]tetraen]-15′-one 13′,13′-dioxide], the results for the half-inhibitory concentration (IC50) in assay [1] (setting [3]) and in assay [2] (setting [4]) were 0.313 nM and 159 nM, respectively.
In the case of `CCOC(=O)C(F)(F)[C@@]1(O)/C=C/C[C@H](C)[C@@H](C)S(=O)(=O)NC(=O)c2ccc3c(c2)N(C[C@@H]2CC[C@H]21)C[C@@]1(CCCc2cc(Cl)ccc21)CO3` [Example 100414, ethyl ((1S,3′R,6′R,7′R,8′E,11′S,12′R)-6-chloro-7′-hydroxy-11′,12′-dimethyl-13′,13′-dioxido-15′-oxo-3,4-dihydro-2H-spiro[naphthalene-1,22′-[20]oxa[13]thia[1,14]diazatetracyclo [14.7.2.0~3,6~.0~19,24~]pentacosa[8,16,18,24]tetraen]-7′-yl)(difluoro)acetate], the IC50 – broadly, the concentration needed to halve the response being measured – in assay [1] (setting [3]) is 0.626 nM; in assay [2] (setting [4]), 1270 nM.
For `C[C@@H]1[C@@H](C)C/C=C/C(O)(Cc2nccn2C)[C@@H]2CC[C@H]2CN2C[C@@]3(CCCc4cc(Cl)ccc43)COc3ccc(cc32)C(=O)NS1(=O)=O` (stereo in doubt) [Example 100523, (1S,3′R,6′R,7′S,8′E,11′S,12′R)-6-chloro-7′-hydroxy-11′,12′-dimethyl-7′-((1-methyl-1H-imidazol-2-yl)methyl)-3,4-dihydro-2H,15′H-spiro[naphthalene-1,22′-[20]oxa[13]thia[1,14]diazatetracyclo [14.7.2.0~3,6~.0~19,24~]pentacosa[8,16,18,24]tetraen]-15′-one 13′,13′-dioxide] the same measures were 0.812 nM and 622 nM.
Regarding `CO[C@@]1(CCN2CC(C)(N(C)C)C2)/C=C/C[C@H](C)[C@@H](C)S(=O)(=O)NC(=O)c2ccc3c(c2)N(C[C@@H]2CC[C@H]21)C[C@@]1(CCCc2cc(Cl)ccc21)CO3` [Example 100431, (1S,3′R,6′R,7′S,8′E,11′S,12′R)-6-chloro-7′-(2-(3-(dimethylamino)-3-methyl-1-azetidinyl)ethyl)-7′-methoxy-11′,12′-dimethyl-3,4-dihydro-2H,15′H-spiro[naphthalene-1,22′-[20]oxa[13]thia[1,14]diazatetracyclo [14.7.2.0~3,6~.0~19,24~]pentacosa[8,16,18,24]tetraen]-15′-one 13′,13′-dioxide], the IC50 in assay [1] (setting [3]) came out at 0.043 nM; in assay [2] (setting [4]) it was 290 nM.
With `COC[C@@H]1[C@@H](C)C/C=C/[C@](CN2CCN3CCOC[C@@H]3C2)(OC)[C@@H]2CC[C@H]2CN2C[C@@]3(CCCc4cc(Cl)ccc43)COc3ccc(cc32)C(=O)NS1(=O)=O` [Example 168, (1S,3′R,6′R,7′S,8′E,11′S,12′S)-6-chloro-7′-((9aS)-hexahydropyrazino[2,1-c][1,4]oxazin-8(1H)-ylmethyl)-7′-methoxy-12′-(methoxymethyl)-11′-methyl-3,4-dihydro-2H,15′H-spiro[naphthalene-1,22′-[20]oxa[13]thia[1,14]diazatetracyclo [14.7.2.0~3,6~.0~19,24~]pentacosa[8,16,18,24]tetraen]-15′-one 13′,13′-dioxide], the figures for the IC50 in assay [1] (setting [5]) and in assay [2] (setting [6]) were 0.138 nM and 52 nM, respectively.
For the molecule `CO[C@@]1(CN2CCN3CCN(C(=O)CCS(=O)(=O)c4ccccc4)C[C@@H]3C2)/C=C/C[C@H](C)[C@@H](C)S(=O)(=O)NC(=O)c2ccc3c(c2)N(C[C@@H]2CC[C@H]21)C[C@@]1(CCCc2cc(Cl)ccc21)CO3` [Example 233], the IC50 came out at 0.516 nM in assay [1] (setting [5]) and 202 nM in assay [2] (read-out: OPM-2 10% FBS IC50 IP, OPM-2 cells, 10% FBS, 16 h incubation).
Turning to `CO[C@@]1(CN2CCN(C3CN(C)C3)CC2)/C=C/C[C@H](C)[C@@H](C)S(=O)(=O)NC(=O)c2ccc3c(c2)N(C[C@@H]2CC[C@H]21)C[C@@]1(CCCc2cc(Cl)ccc21)CO3` [Example 282, (1S,3′R,6′R,7′S,8′E,11′S,12′R)-6-chloro-7′-methoxy-11′,12′-dimethyl-7′-((4-(1-methyl-3-azetidinyl)-1-piperazinyl)methyl)-3,4-dihydro-2H,15′H-spiro[naphthalene-1,22′-[20]oxa[13]thia[1,14]diazatetracyclo [14.7.2.0~3,6~.0~19,24~]pentacosa[8,16,18,24]tetraen]-15′-one 13′,13′-dioxide], the values for the IC50 in assay [1] (setting [5]) and in assay [2] (setting [6]) were 0.118 nM and 486 nM, respectively.
As to `C[C@@H]1[C@@H](C)CCC[C@](C)(CN2CCOCC2)[C@@H]2CC[C@H]2CN2C[C@@]3(CCCc4cc(Cl)ccc43)COc3ccc(cc32)C(=O)NS1(=O)=O` [Example 100302, (1S,3′R,6′R,7′S,11′S,12′R)-6-chloro-7′,11′,12′-trimethyl-7′-(4-morpholinylmethyl)-3,4-dihydro-2H,15′H-spiro[naphthalene-1,22′-[20]oxa[13]thia[1,14]diazatetracyclo [14.7.2.0~3,6~.0~19,24~]pentacosa[16,18,24]trien]-15′-one 13′,13′-dioxide], the results for the half-maximal inhibitory concentration (IC50) in assay [1] (setting [3]) and in assay [2] (setting [4]) were 3.8 nM and 4880 nM, respectively.
As to `COCC[C@@H]1[C@@H](C)C/C=C/[C@](CN2CCN(C(COC)COC)CC2)(OC)[C@@H]2CC[C@H]2CN2C[C@@]3(CCCc4cc(Cl)ccc43)COc3ccc(nc32)C(=O)NS1(=O)=O` [Example 25, (1S,3′R,6′R,7′S,8′E,11′S,12′R)-6-chloro-7′-methoxy-12′-(2-methoxyethyl)-7′-((4-(2-methoxy-1-(methoxymethyl)ethyl)-1-piperazinyl)methyl)-11′-methyl-3,4-dihydro-2H,15′H-spiro[naphthalene-1,22′-[20]oxa[13]thia[1,14,25]triazatetracyclo [14.7.2.0~3,6~.0~19,24~]pentacosa[8,16,18,24]tetraen]-15′-one 13′,13′-dioxide], the half-inhibitory concentration (IC50) in assay [1] (setting [5]) came out at 0.113 nM; in assay [2] (setting [6]), 41 nM.
`COc1ccncc1[C@]1(O)/C=C/C[C@H](C)[C@@H](C)S(=O)(=O)NC(=O)c2ccc3c(c2)N(C[C@@H]2CC[C@H]21)C[C@@]1(CCCc2cc(Cl)ccc21)CO3` (single isomer, unassigned) [Example 100557]: the IC50 in assay [1] (setting [3]) stood at 0.093 nM; in assay [2] (setting [4]), 299 nM.
Consider `C[C@@H]1[C@@H](C)CCC[C@](O)(COCCN(C)C)[C@@H]2CC[C@H]2CN2C[C@@]3(CCCc4cc(Cl)ccc43)COc3ccc(cc32)C(=O)NS1(=O)=O` (stereo in doubt) [Example 100196], for which the 50% inhibitory concentration (IC50) in assay [1] (setting [3]) was determined as 0.461 nM; in assay [2] (setting [7]), 358 nM.
For the molecule `CO[C@@]1(CC(=O)N(C)C2CCCC2)/C=C/C[C@H](C)[C@@H](C)S(=O)(=O)NC(=O)c2ccc3c(c2)N(C[C@@H]2CC[C@H]21)C[C@@]1(CCCc2cc(Cl)ccc21)CO3` [Example 100405, 2-((1S,3′R,6′R,7′S,8′E,11′S,12′R)-6-chloro-7′-methoxy-11′,12′-dimethyl-13′,13′-dioxido-15′-oxo-3,4-dihydro-2H-spiro[naphthalene-1,22′-[20]oxa[13]thia[1,14]diazatetracyclo [14.7.2.0~3,6~.0~19,24~]pentacosa[8,16,18,24]tetraen]-7′-yl)-N-cyclopentyl-N-methylacetamide], the IC50 in assay [1] (setting [3]) was 0.545 nM; in assay [2] (setting [4]), 1120 nM.
`C[C@@H]1[C@@H](C)CCC[C@@](O)(CC(=O)N2CCC2)[C@@H]2CC[C@H]2CN2C[C@@]3(CCCc4cc(Cl)ccc43)COc3ccc(cc32)C(=O)NS1(=O)=O` [Example 100145, (1S,3′R,6′R,7′R,11′S,12′R)-7′-(2-(1-azetidinyl)-2-oxoethyl)-6-chloro-7′-hydroxy-11′,12′-dimethyl-3,4-dihydro-2H,15′H-spiro[naphthalene-1,22′-[20]oxa[13]thia[1,14]diazatetracyclo [14.7.2.0~3,6~.0~19,24~]pentacosa[16,18,24]trien]-15′-one 13′,13′-dioxide]: the IC50 in assay [1] (setting [3]) came to 0.357 nM; in assay [2] (setting [7]), 945 nM.
In the case of `CO[C@@]1(CC(=O)N(C)CCN2CCOCC2)/C=C/C[C@H](C)[C@@H](C)S(=O)(=O)NC(=O)c2ccc3c(c2)N(C[C@@H]2CC[C@H]21)C[C@@]1(CCCc2cc(Cl)ccc21)CO3` [Example 100377, 2-((1S,3′R,6′R,7′S,8′E,11′S,12′R)-6-chloro-7′-methoxy-11′,12′-dimethyl-13′,13′-dioxido-15′-oxo-3,4-dihydro-2H-spiro[naphthalene-1,22′-[20]oxa[13]thia[1,14]diazatetracyclo [14.7.2.0~3,6~.0~19,24~]pentacosa[8,16,18,24]tetraen]-7′-yl)-N-methyl-N-(2-(4-morpholinyl)ethyl)acetamide], the concentration for half-maximal inhibition (IC50) is 0.107 nM in assay [1] (setting [3]) and 182 nM in assay [2] (setting [4]).
Take `CO[C@@]1(CN2CC(C)(N(C)C)C2)/C=C/C[C@H](C)[C@@H](C)S(=O)(=O)NC(=O)c2ccc3c(c2)N(C[C@@H]2CC[C@H]21)C[C@@]1(CCCc2cc(Cl)ccc21)CO3` [Example 59, (1S,3′R,6′R,7′S,8′E,11′S,12′R)-6-chloro-7′-((3-(dimethylamino)-3-methyl-1-azetidinyl)methyl)-7′-methoxy-11′,12′-dimethyl-3,4-dihydro-2H,15′H-spiro[naphthalene-1,22′-[20]oxa[13]thia[1,14]diazatetracyclo [14.7.2.0~3,6~.0~19,24~]pentacosa[8,16,18,24]tetraen]-15′-one 13′,13′-dioxide]: the 50% inhibitory concentration (IC50) came out at 0.116 nM in assay [1] (setting [5]) and 48 nM in assay [2] (setting [6]).

Values taken from patent publication US10821115B2, “Compounds that inhibit Mcl-1 protein” (priority 2017, dated 2020).
